# Measurements published in patent US8435980B2 (AbbVie Inc., priority 2009, dated 2013).
# Target: T1, Cdc7 (BEV coexpressed huCDC7/DBF4) (Homo sapiens, UniProt O00311)
# T1 construct: made in house; host or cells: BEV (baculovirus expression vector) co-expression; insect cells are implied but no cell line is named
# Assay: Cdc7 enzyme inhibition assay ([33P]ATP, biotinylated peptide substrate, FlashPlate)
# Assay type: biochemical
# Conditions: Table 3; enzyme inhibition data (Ki)
# Description: Cdc7 (BEV coexpressed huCDC7/DBF4) is prepared internally. Cdc7 assays are conducted as follows with final concentrations as listed. […] Reactions are quenched after 1 hr by the addition of 90 μL stop buffer (50 mM EDTA, 2M NaCl). […] (Ki) for exemplary compounds.
# T1 sequence (O00311 whole entry): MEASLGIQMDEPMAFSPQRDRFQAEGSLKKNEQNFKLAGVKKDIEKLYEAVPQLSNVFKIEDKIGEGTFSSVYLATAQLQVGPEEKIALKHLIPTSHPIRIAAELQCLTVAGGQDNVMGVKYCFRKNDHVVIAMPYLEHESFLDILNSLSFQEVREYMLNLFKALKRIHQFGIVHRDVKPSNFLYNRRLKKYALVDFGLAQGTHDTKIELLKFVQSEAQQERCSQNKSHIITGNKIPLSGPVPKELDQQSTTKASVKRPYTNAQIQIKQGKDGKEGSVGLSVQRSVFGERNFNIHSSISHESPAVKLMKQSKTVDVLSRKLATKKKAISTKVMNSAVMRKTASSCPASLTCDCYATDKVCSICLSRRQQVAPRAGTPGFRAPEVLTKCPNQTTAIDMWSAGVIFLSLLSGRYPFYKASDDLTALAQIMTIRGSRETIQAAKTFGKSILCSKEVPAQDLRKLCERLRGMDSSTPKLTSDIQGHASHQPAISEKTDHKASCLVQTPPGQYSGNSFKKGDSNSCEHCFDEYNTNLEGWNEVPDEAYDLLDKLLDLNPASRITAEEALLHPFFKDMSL
# T1 sequence (Q9UBU7 whole entry partner): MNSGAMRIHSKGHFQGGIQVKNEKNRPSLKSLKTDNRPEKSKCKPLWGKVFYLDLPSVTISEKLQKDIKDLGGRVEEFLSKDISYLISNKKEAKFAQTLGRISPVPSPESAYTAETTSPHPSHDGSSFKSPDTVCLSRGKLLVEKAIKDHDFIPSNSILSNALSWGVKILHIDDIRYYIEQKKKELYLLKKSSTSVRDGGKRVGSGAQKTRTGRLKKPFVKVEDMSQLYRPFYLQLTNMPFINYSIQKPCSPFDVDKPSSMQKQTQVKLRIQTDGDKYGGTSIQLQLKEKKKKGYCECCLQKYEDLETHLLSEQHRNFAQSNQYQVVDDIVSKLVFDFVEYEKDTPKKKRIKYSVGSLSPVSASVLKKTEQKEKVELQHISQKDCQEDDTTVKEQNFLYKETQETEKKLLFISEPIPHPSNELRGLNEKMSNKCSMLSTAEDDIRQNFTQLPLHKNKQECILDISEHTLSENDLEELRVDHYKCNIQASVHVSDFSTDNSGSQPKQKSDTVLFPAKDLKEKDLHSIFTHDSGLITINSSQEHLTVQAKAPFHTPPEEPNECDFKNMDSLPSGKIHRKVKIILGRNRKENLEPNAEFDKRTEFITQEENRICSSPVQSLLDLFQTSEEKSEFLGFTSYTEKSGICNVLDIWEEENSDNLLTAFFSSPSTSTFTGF
row,Compound,Ki [nM]
1,"COc1cnc2[nH]cc(-c3cc(Cl)nc(N[C@H]4CC[C@H](NC(=O)C(C)C)CC4)c3)c2c1 [Example 228, N-(trans-4-{[6-chloro-4-(5-methoxy-1H-pyrrolo[2,3-b]pyridin-3-yl)pyridin-2-yl]amino}cyclohexyl)-2-methylpropanamide]",< 10
2,"O=C(CN1CCN(c2ccc(F)cc2)CC1)N[C@H]1CC[C@H](Nc2cc(-c3c[nH]c4ncccc34)cc(Cl)n2)CC1 [Example 229, N-(trans-4-{[6-chloro-4-(1H-pyrrolo[2,3-b]pyridin-3-yl)pyridin-2-yl]amino}cyclohexyl)-2-[4-(4-fluorophenyl)piperazin-1-yl]acetamide]",< 10
3,"O=C(CN1CCN(c2ccncc2)CC1)N[C@H]1CC[C@H](Nc2cc(-c3c[nH]c4ncccc34)cc(Cl)n2)CC1 [Example 230, N-(trans-4-{[6-chloro-4-(1H-pyrrolo[2,3-b]pyridin-3-yl)pyridin-2-yl]amino}cyclohexyl)-2-[4-(pyridin-4-yl)piperazin-1-yl]acetamide]",< 10
4,"O=C(CN1CCN(C2CCCCC2)CC1)N[C@H]1CC[C@H](Nc2cc(-c3c[nH]c4ncccc34)cc(Cl)n2)CC1 [Example 231, N-(trans-4-{[6-chloro-4-(1H-pyrrolo[2,3-b]pyridin-3-yl)pyridin-2-yl]amino}cyclohexyl)-2-(4-cyclohexylpiperazin-1-yl)acetamide]",< 10
5,"CCCCN1CCN(CC(=O)N[C@H]2CC[C@H](Nc3cc(-c4c[nH]c5ncccc45)cc(Cl)n3)CC2)CC1 [Example 232, 2-(4-butylpiperazine-1-yl)-N-(trans-4-{[6-chloro-4-(1H-pyrrolo[2,3-b]pyridin-3-yl)pyridin-2-yl]amino}cyclohexyl)acetamide]",< 10
6,"O=C(CN1CCN(C(=O)c2ccco2)CC1)N[C@H]1CC[C@H](Nc2cc(-c3c[nH]c4ncccc34)cc(Cl)n2)CC1 [Example 233, N-(trans-4-{[6-chloro-4-(1H-pyrrolo[2,3-b]pyridin-3-yl)pyridin-2-yl]amino}cyclohexyl)-2-[4-(furan-2-ylcarbonyl)piperazin-1-yl]acetamide]",< 10
7,"N#Cc1ccccc1N1CCN(CC(=O)N[C@H]2CC[C@H](Nc3cc(-c4c[nH]c5ncccc45)cc(Cl)n3)CC2)CC1 [Example 234, N-(trans-4-{[6-chloro-4-(1H-pyrrolo[2,3-b]pyridin-3-yl)pyridin-2-yl]amino}cyclohexyl)-2-[4-(2-cyanophenyl)piperazin-1-yl]acetamide]",< 10
8,"O=C(O)c1cnc2[nH]cc(-c3cc(Cl)nc(NC4CCCCC4)c3)c2c1 [Example 235, 3-[2-chloro-6-(cyclohexylamino)pyridin-4-yl]-1H-pyrrolo[2,3-b]pyridine-5-carboxylic acid]",< 10
9,"COc1cnc2[nH]cc(-c3cc(Cl)nc(NC4CCC(C5CCNCC5)CC4)c3)c2c1 (stereo not shown) [Example 236, 6-chloro-4-(5-methoxy-1H-pyrrolo[2,3-b]pyridin-3-yl)-N-[4-(piperidin-4-yl)cyclohexyl]pyridin-2-amine]",< 10
10,"COc1cnc2[nH]cc(-c3cc(Cl)nc(NC4CCC(CC5CCC(N)CC5)CC4)c3)c2c1 (stereo not shown) [Example 237, N-{4-[(4-aminocyclohexyl)methyl]cyclohexyl}-6-chloro-4-(5-methoxy-1H-pyrrolo[2,3-b]pyridin-3-yl)pyridin-2-amine]",< 10
11,"COc1cnc2[nH]cc(-c3cc(Cl)nc(NC4CCC(CC5CCC(NC6CCCCC6)CC5)CC4)c3)c2c1 (stereo not shown) [Example 238, 6-chloro-N-(4-{[4-(cyclohexylamino)cyclohexyl]methyl}cyclohexyl)-4-(5-methoxy-1H-pyrrolo[2,3-b]pyridin-3-yl)pyridin-2-amine]",< 10
12,"Clc1cc(-c2c[nH]c3ncc(Nc4ccccc4)cc23)cc(NC2CCCCC2)n1 [Example 239, 3-[2-chloro-6-(cyclohexylamino)pyridin-4-yl]-N-phenyl-1H-pyrrolo[2,3-b]pyridin-5-amine]",10 to 100
13,"COc1cnc2[nH]cc(-c3cc(Cl)nc(NC4CCC(CC5CCC(NC(=O)C6CC6)CC5)CC4)c3)c2c1 (stereo not shown) [Example 240, N-[4-[(4-{[6-chloro-4-(5-methoxy-1H-pyrrolo[2,3-b]pyridin-3-yl)pyridin-2-yl]amino}cyclohexyl)methyl]cyclohexyl]cyclopropanecarboxamide]",< 10
14,"C#CCOc1cnc2[nH]cc(-c3cc(Cl)nc(N[C@H]4CC[C@H](N)CC4)c3)c2c1 [Example 241, (trans)-N1-(6-chloro-4-(5-(prop-2-ynyloxy)-1H-pyrrolo[2,3-b]pyridin-3-yl)pyridin-2-yl)cyclohexane-1,4-diamine]",10 to 100
15,"O=C(NCc1ccccn1)c1cnc2[nH]cc(-c3cc(Cl)nc(NC4CCCCC4)c3)c2c1 [Example 242, 3-[2-chloro-6-(cyclohexylamino)pyridin-4-yl]-N-(pyridin-2-ylmethyl)-1H-pyrrolo[2,3-b]pyridine-5-carboxamide]",< 10
16,"Clc1cc(-c2c[nH]c3ncc(-c4cncnc4)cc23)cc(NC2CCCCC2)n1 [Example 243, 6-chloro-N-cyclohexyl-4-[5-(pyrimidin-5-yl)-1H-pyrrolo[2,3-b]pyridin-3-yl]pyridin-2-amine]",< 10

row,Compound,Ki [nM]
1,"CCCCS(=O)(=O)N[C@H]1CC[C@H](Nc2cc(-c3c[nH]c4ncc(OC)cc34)cc(Cl)n2)CC1 [Example 244, N-(trans-4-{[6-chloro-4-(5-methoxy-1H-pyrrolo[2,3-b]pyridin-3-yl)pyridin-2-yl]amino}cyclohexyl)butane-1-sulfonamide]",< 10
2,"Nc1ccc(-c2cnc3[nH]cc(-c4cc(Cl)nc(NC5CCCCC5)c4)c3c2)cn1 [Example 245, 4-[5-(6-aminopyridin-3-yl)-1H-pyrrolo[2,3-b]pyridin-3-yl]-6-chloro-N-cyclohexylpyridin-2-amine]",< 10
3,"COc1cnc2[nH]cc(-c3cc(Cl)nc(N[C@H]4CC[C@H](NC(=O)CN)CC4)c3)c2c1 [Example 246, N-(trans-4-{[6-chloro-4-(5-methoxy-1H-pyrrolo[2,3-b]pyridin-3-yl)pyridin-2-yl]amino}cyclohexyl)glycinamide]",< 10
4,"COc1ccnc2[nH]cc(-c3cc(Cl)nc(NC4CCCCC4)c3)c12 [Example 247, 6-chloro-N-cyclohexyl-4-(4-methoxy-1H-pyrrolo[2,3-b]pyridin-3-yl)pyridin-2-amine]",< 10
5,"CCNC(=O)Nc1cnc2[nH]cc(-c3cc(Cl)nc(NC4CCCCC4)c3)c2c1 [Example 248, 1-{3-[2-chloro-6-(cyclohexylamino)pyridin-4-yl]-1H-pyrrolo[2,3-b]pyridin-5-yl}-3-ethylurea]",< 10
6,"O=C(N[C@H]1CC[C@H](Nc2cc(-c3c[nH]c4ncccc34)cc(Cl)n2)CC1)C1CN(Cc2ccncc2)C1 [Example 249, N-(trans-4-{[6-chloro-4-(1H-pyrrolo[2,3-b]pyridin-3-yl)pyridin-2-yl]amino}cyclohexyl)-1-(pyridin-4-ylmethyl)azetidine-3-carboxamide]",< 10
7,"O=C(N[C@H]1CC[C@H](Nc2cc(-c3c[nH]c4ncccc34)cc(Cl)n2)CC1)C1CN(C2CCNCC2)C1 [Example 250, N-(trans-4-{[6-chloro-4-(1H-pyrrolo[2,3-b]pyridin-3-yl)pyridin-2-yl]amino}cyclohexyl)-1-(piperidin-4-yl)azetidine-3-carboxamide]",< 10
8,"COc1cnc2[nH]cc(-c3cc(Cl)nc(N[C@H]4CC[C@H](NC(=O)CNC5CCCCC5)CC4)c3)c2c1 [Example 251, N-(trans-4-{[6-chloro-4-(5-methoxy-1H-pyrrolo[2,3-b]pyridin-3-yl)pyridin-2-yl]amino}cyclohexyl)-N^2-cyclohexylglycinamide]",< 10
9,"COc1cnc2[nH]cc(-c3cc(Cl)nc(NC4CCC(C5CCN(C6CCC6)CC5)CC4)c3)c2c1 (stereo not shown) [Example 252, 6-chloro-N-[4-(1-cyclobutylpiperidin-4-yl)cyclohexyl]-4-(5-methoxy-1H-pyrrolo[2,3-b]pyridin-3-yl)pyridin-2-amine]",< 10
10,"COc1cnc2[nH]cc(-c3cc(Cl)nc(N[C@H]4CC[C@H](NS(=O)(=O)C5CCCCC5)CC4)c3)c2c1 [Example 253, N-(trans-4-{[6-chloro-4-(5-methoxy-1H-pyrrolo[2,3-b]pyridin-3-yl)pyridin-2-yl]amino}cyclohexyl)cyclohexanesulfonamide]",< 10
11,"COc1cnc2[nH]cc(-c3cc(Cl)nc(N[C@H]4CC[C@H](NC(=O)CN5CCOCC5)CC4)c3)c2c1 [Example 254, N-(trans-4-{[6-chloro-4-(5-methoxy-1H-pyrrolo[2,3-b]pyridin-3-yl)pyridin-2-yl]amino}cyclohexyl)-2-(morpholin-4-yl)acetamide]",< 10
12,"CC(=O)Nc1cccc(-c2cnc3[nH]cc(-c4cc(Cl)nc(NC5CCCCC5)c4)c3c2)c1 [Example 255, N-(3-{3-[2-chloro-6-(cyclohexylamino)pyridin-4-yl]-1H-pyrrolo[2,3-b]pyridin-5-yl}phenyl)acetamide]",< 10
13,"CS(=O)(=O)Nc1cnc2[nH]cc(-c3cc(Cl)nc(NC4CCCCC4)c3)c2c1 [Example 256, N-{3-[2-chloro-6-(cyclohexylamino)pyridin-4-yl]-1H-pyrrolo[2,3-b]pyridin-5-yl}methanesulfonamide]",< 10
14,"COc1cnc2[nH]cc(-c3cc(Cl)nc(NC4CCC(CC5CCC(NC(=O)c6cccnc6)CC5)CC4)c3)c2c1 (stereo not shown) [Example 257, N-{4-[(4-{[6-chloro-4-(5-methoxy-1H-pyrrolo[2,3-b]pyridin-3-yl)pyridin-2-yl]amino}cyclohexyl)methyl]cyclohexyl}pyridine-3-carboxamide]",< 10
15,"COc1cnc2[nH]cc(-c3cc(Cl)nc(N[C@H]4CC[C@H](NC(=O)CNCC(C)(C)C)CC4)c3)c2c1 [Example 258, N-(trans-4-{[6-chloro-4-(5-methoxy-1H-pyrrolo[2,3-b]pyridin-3-yl)pyridin-2-yl]amino}cyclohexyl)-N^2-(2,2-dimethylpropyl)glycinamide]",< 10
